Laboratory results taken from patent publication US5252566A, “Antithrombotic agents” (priority 1992, dated 1993).
pKd: −log10 of the molar value. Counter-ions that a name gives are not always drawn. Where a SMILES comes first, the peptide text is derived from it. [ ]: non-standard residue; d: D form. dTic = O=C(O)[C@H]1Cc2ccccc2CN1; Aze = O=C(O)[C@@H]1CCN1

biological target: T1, thrombin (Bos taurus, UniProt P00735); assay: biochemical; details: not given
T1 construct: purchased
Protocol: The assay was carried out in 50 μl buffer (0.03M Tris, 0.15M NaCl, pH 7.4) with 25 μl of thrombin solution (0.21 mg/ml of thrombostat powder in 0.06M Tris, 0.3M NaCl, pH 7.4) and 150 μl of an aqueous solution of the chromogenic substrate at a concentration of 0.25 mg/ml. Solutions of test compound (25 μl) at various concentrations were added. Rates of hydrolysis of the substrate were measured by monitoring the reactions at 405 nm for the release of p-nitroaniline. Standard curves were constructed by plotting free thrombin concentration against hydrolysis rate. […] The amount of free inhibitor in each assay was calculated by subtracting the number of moles of bound thrombin from the number of moles of added inhibitor (test compound).
The Kass value is the hypothetical equilibrium constant for the reaction between thrombin and the test compound (I). [drawing 23]
Kass was calculated for a range of concentrations of test compounds and the mean value is reported in units of liter per mole.

SMILES	pKd
CC(C)(C)OC(=O)NC(C)(C(=O)N1CC[C@H]1C(=O)N[C@H](C=O)CCCNC(=N)N)c1ccccc1 (mixture of isomers) [Boc--DL--Phg(α-CH3)--Azt--Arg--H, N--Boc--DL--Phg(α-CH3)--Azt--Arg--H]	7.04
CC(C)(C)OC(=O)N[C@@](C)(C(=O)N1CC[C@H]1C(=O)N[C@H](C=O)CCCN=C(N)N)c1ccccc1 [Boc--D--Phg(α-CH3)--Azt--Arg--H, N--Boc--D--Phg(α-CH3)--Azt--Arg--H]	7.79

same assay, conditions: Table 1; mean over a range of concentrations of test compound; pH 7.4; read-out: Kass × 10^6 (Thrombin Inhibition Levels) (converted)

SMILES	Kd
CC(=O)NC(C)(C(=O)N1CC[C@H]1C(=O)N[C@H](C=O)CCCNC(=N)N)c1ccccc1 (mixture of isomers) [Ac--Phg(α-CH3)--Azt--Arg--H, N--Acetyl--DL--Phg(α-CH3)--Azt--Arg--H]	66.7 nM
N=C(N)NCCC[C@@H](C=O)NC(=O)[C@@H]1CCN1C(=O)C1NCCc2ccccc21 (mixture of isomers) [DL-1-Tiq--Azt--Arg--H, DL-1,2,3,4-tetrahydroisoquinolin-1-oyl-L-azetidinyl-L-arginine aldehyde sulfate]	37 nM
CC(=O)N[C@@](C)(C(=O)N1CC[C@H]1C(=O)N[C@H](C=O)CCCNC(=N)N)c1ccccc1 [Ac--D--Phg(α-CH3)--Azt--Arg--H, N--Acetyl--D--Phg(α-CH3)--Azt--Arg--H]	14.3 nM
N=C(N)NCCC[C@@H](C=O)NC(=O)[C@@H]1CCN1C(=O)[C@H]1Cc2ccccc2CN1 [D-3-Tiq--Azt--Arg--H, D-1,2,3,4-Tetrahydroisoquinolin-3-oyl-L-azetidin-2-oyl-L-arginine aldehyde sulfate] (H-[dTic]-[Aze]-Arg-aldehyde)	28.6 nM
C[C@](NC(=O)C(F)(F)F)(C(=O)N1CC[C@H]1C(=O)N[C@H](C=O)CCCN=C(N)N)c1ccccc1 [TFA--D--Phg(α-Me)--Azt--Arg--H, N-[N-trifluoracetyl-D-(α-methyl)phenylglycyl)-L-azetidinyl-L-argininealdehyde hydrochloride]	7.87 nM
